Results from patent US20240423206A1, “HERBICIDE TRANSPORT SYSTEM” (priority 2021, published 2024).

Assays:
[1] = powdered form, repeated inhalation of dust; cited from earlier work
[2] = Procedure: Pinoxaden (25 g) was added to the respective solvent (75 g) as set out in Table 1 and stirred at 50° C. for 1 hour. After cooling to room temperature (RT) the sample was visually checked for solid residues.
Where there were no residues and the resulting solution was a clear liquid the sample was considered as a “pass”.

Compound | respiratory sensitisation [1] | Solubility [2]
CCc1cc(C)cc(CC)c1-c1c(OC(=O)C(C)(C)C)n2n(c1=O)CCOCC2 [pinoxaden] | respiratory sensitizer | –
cyclohexanedicarboxylic acid, dinonyl ester | – | Fail
rapeseed oil | – | Fail
